Earlier results on 2 compounds are cited in patent US8283517B2, “Transgenic mouse models of Aβ overexpression” (Probiodrug AG, priority 2007, dated 2012).

Test in series [1]: not given
The source holds these as a separate data set.

Another series deals with QC. Conditions: QC catalyzed conversion of Glu-βNA, pH-dependence data.

`N[C@@H](CCC(=O)O)C(=O)O` [Glutamate]: the “pKa-value for the α-amino moiety” value was ~7.5. Further, the “pKa-value for the γ-carboxylic moiety” value (printed as 7-carboxylic) is listed as “about 4.2”.
Regarding `N[C@@H](CCC(=O)O)C(=O)Nc1ccc2ccccc2c1` [Glu-βNA], the “pKa-value of the α-amino group, determined by titration” value in series [1] is 7.57±0.05. Besides, the “kinetically determined pKa-value” with QC is 7.55+/−0.02.
